Test results published in US20080031868A1, “HUMAN LYSOZYME MEDICINE, ITS MANUFACTURING METHOD AND APPLICATION THEREOF” (priority 2005, published 2008).
Values after ≈ are worked out from the molar mass of the structure shown.

Columns and labels:
[1] = system: Staphylococcus aureus MRSABAA-42; experiment: Bronchus pneumonia mice infected by Staphylococcus aureus MRSA BAA-42, treated by atomization inspiring; assay type: in vivo; settings: for accumulative survival number: 30 mice; for accumulative survival number / survival rate (%): 14 days; for survival elevation rate (%): versus infected model group; for bacterial number: mice lung
[2] = system: Staphylococcus aureus MRSABAA-42; experiment: as above; assay type: in vivo; settings: mice lung; atomization inspired 6.0; the 1th day
From the text: A, atomization sucks gene recombinant Human Lysozyme (HLZ) cured bronchus pneumonia mice infected by Staphylococcus aureus MRSABAA-42
Choose the test lawn, after washing with the physiological saline, correcting by McB tubes for comparative tests bacterium solution concentration 2#MCF, turbidity of 2.7×10^11 CFU/ml, diluted with physiological saline separately into 10^−1, 10^−2, 10^−3 bacterium solution, drip the nose to infect for mice respectively (anaesthetize the mice with the pentobarbital first, 30 mg/kg, ip.), 0.05 ml a mouse. Observed the mice body changing, and killed parts of mice after infecting 48 h, fetch the whole lung to tissue homogenate, 10 times diluted by physiological saline, draw 0.1 m1 to MH agar plate surface, to cultivate last night 35° C., Gram staining, test under microscope, and count plate. At the same time recorded the number of death mice, and collect some mice tracheas, bronchus, lung tissue and do pathology tissue observing.
It is called medial lethal dose (LD50) that bacterium amount caused mice appearing lung pharmacology change and 50% died. LD50was used as experimental treatment amount.
Infected mice is divided into 10 groups at random according to the weight, 30 every groups.
Designed dosage: The concentration of recombinant human lysozyme medicine was 15000 u/ml as in clinical atomization therapy. Its dose was 15000 u per time and administrated one time everyday, I.e 0.5 mg per time everyday. The dose was 1.3×10-3 mg a mice (counted by weight of 20 g). […] To ensure the breathing amount of lysozyme, the breathing time were extended for 0.5 hour. Based on 0.5 mg/ml, the concentration of 0.25 mg/ml, 1.0 mg/ml and 2.0 mg/ml were set respectively as treatment dose.
The same group mice were put into the ultrasonic atomizer and then treated with human lysozyme atomized in the compression sprayer (PARL.BOY), twice a day, 5 days in succession.
Every group, from the infected day to calculae, the animal incidence and death were recorded 14 days in succession. Every group collected 2-3 mice and killed them the 14th day after infecting, did bacteriology detection after lung homogenate, killed surplus animal to fetch the trachea, bronchus, fixed in 10% of the formaldehyde solution after weighing, did pathology check.
The bacterial culture: A part of mice were killed after infecting 24 h, fetched the whole lung weighting, added 2 ml degerming PBS solution 10 times diluted, draw 0.1 mL to MH agar plate surface, to cultivate last night 35° C., counted in the cultivation plateform of 30-300 CF, if the two close level tissue fluid is 30-300 CFU, counted the low density (make 3 plateforms at the same time each tissue fluid, calculate the average). Collected 2 mice to do bacterial culture in every group at random in 5, 7, 14 days after administration.
Pathology detection: After dissecting the mice, observed the trachea, bronchus, syncretio of lung, chest wall and membrana pleuralis, the volume of lung and size of lung focus, the lung surface was congested, hydroncus, consolidation and atelectasis by the naked eye. Took out the trachea, bronchus and the whole lung tissue to fixed with 10% of the formaldehyde solution, draw materials.

[3] = 0.75 mg/ml atomization inspired

Compound: CC[C@H]1OC(=O)[C@H](C)[C@@H](O[C@H]2C[C@@](C)(OC)[C@@H](O)[C@H](C)O2)[C@H](C)[C@@H](O[C@@H]2O[C@H](C)C[C@H](N(C)C)[C@H]2O)[C@](C)(OC)C[C@@H](C)C(=O)[C@H](C)[C@@H](O)[C@]1(C)O [Clarithromycin, reference compound]
- average survival day (day, x ± s) [1, 3]: 7.67 ± 4.01 days
- accumulative survival number [1, 3]: 5
- survival rate (%) [1, 3]: 16.7%
- Death number(piece) ([1]; 0.75 mg/ml atomization inspired, day 1): 0 piece
- Death number(piece) ([1]; 0.75 mg/ml atomization inspired, day 2): 0 piece
- Death number(piece) ([1]; 0.75 mg/ml atomization inspired, day 3): 4 piece
- Death number(piece) ([1]; 0.75 mg/ml atomization inspired, day 4): 4 piece
- Death number(piece) ([1]; 0.75 mg/ml atomization inspired, day 5): 3 piece
- Death number(piece) ([1]; 0.75 mg/ml atomization inspired, day 6): 4 piece
- Death number(piece) ([1]; 0.75 mg/ml atomization inspired, day 7): 4 piece
- Death number(piece) ([1]; 0.75 mg/ml atomization inspired, day 8): 2 piece
- Death number(piece) ([1]; 0.75 mg/ml atomization inspired, day 9): 3 piece
- Death number(piece) ([1]; 0.75 mg/ml atomization inspired, day 10): 1 piece
- Death number(piece) ([1]; 0.75 mg/ml atomization inspired, day 11): 0 piece
- Death number(piece) ([1]; 0.75 mg/ml atomization inspired, day 12): 0 piece
- Death number(piece) ([1]; 0.75 mg/ml atomization inspired, day 13): 0 piece
- Death number(piece) ([1]; 0.75 mg/ml atomization inspired, day 14): 0 piece
- survival elevation rate (%) [1, 3]: 0.00%
- average survival day (day, x ± s) ([1]; 1.5 mg/ml atomization inspired): 8.70 ± 4.65 days
- accumulative survival number ([1]; 1.5 mg/ml atomization inspired): 12
- survival rate (%) ([1]; 1.5 mg/ml atomization inspired): 40.0%
- Death number(piece) ([1]; 1.5 mg/ml atomization inspired, day 1): 0 piece
- Death number(piece) ([1]; 1.5 mg/ml atomization inspired, day 2): 0 piece
- Death number(piece) ([1]; 1.5 mg/ml atomization inspired, day 3): 4 piece
- Death number(piece) ([1]; 1.5 mg/ml atomization inspired, day 4): 4 piece
- Death number(piece) ([1]; 1.5 mg/ml atomization inspired, day 5): 3 piece
- Death number(piece) ([1]; 1.5 mg/ml atomization inspired, day 6): 4 piece
- Death number(piece) ([1]; 1.5 mg/ml atomization inspired, day 7): 0 piece
- Death number(piece) ([1]; 1.5 mg/ml atomization inspired, day 8): 2 piece
- Death number(piece) ([1]; 1.5 mg/ml atomization inspired, day 9): 0 piece
- Death number(piece) ([1]; 1.5 mg/ml atomization inspired, day 10): 1 piece
- Death number(piece) ([1]; 1.5 mg/ml atomization inspired, day 11): 0 piece
- Death number(piece) ([1]; 1.5 mg/ml atomization inspired, day 12): 0 piece
- Death number(piece) ([1]; 1.5 mg/ml atomization inspired, day 13): 0 piece
- Death number(piece) ([1]; 1.5 mg/ml atomization inspired, day 14): 0 piece
- survival elevation rate (%) ([1]; 1.5 mg/ml atomization inspired): 23.3%
- average survival day (day, x ± s) ([1]; 3 mg/ml atomization inspired): 11.20 ± 3.53 days
- accumulative survival number ([1]; 3 mg/ml atomization inspired): 18
- survival rate (%) ([1]; 3 mg/ml atomization inspired): 60.0%
- Death number(piece) ([1]; 3 mg/ml atomization inspired, day 1): 0 piece
- Death number(piece) ([1]; 3 mg/ml atomization inspired, day 2): 0 piece
- Death number(piece) ([1]; 3 mg/ml atomization inspired, day 3): 0 piece
- Death number(piece) ([1]; 3 mg/ml atomization inspired, day 4): 0 piece
- Death number(piece) ([1]; 3 mg/ml atomization inspired, day 5): 0 piece
- Death number(piece) ([1]; 3 mg/ml atomization inspired, day 6): 4 piece
- Death number(piece) ([1]; 3 mg/ml atomization inspired, day 7): 4 piece
- Death number(piece) ([1]; 3 mg/ml atomization inspired, day 8): 4 piece
- Death number(piece) ([1]; 3 mg/ml atomization inspired, day 9): 0 piece
- Death number(piece) ([1]; 3 mg/ml atomization inspired, day 10): 0 piece
- Death number(piece) ([1]; 3 mg/ml atomization inspired, day 11): 0 piece
- Death number(piece) ([1]; 3 mg/ml atomization inspired, day 12): 0 piece
- Death number(piece) ([1]; 3 mg/ml atomization inspired, day 13): 0 piece
- Death number(piece) ([1]; 3 mg/ml atomization inspired, day 14): 0 piece
- survival elevation rate (%) ([1]; 3 mg/ml atomization inspired): 43.3%
- average survival day (day, x ± s) ([1]; 6 mg/ml atomization inspired): 11.60 ± 3.48 days
- accumulative survival number ([1]; 6 mg/ml atomization inspired): 20
- survival rate (%) ([1]; 6 mg/ml atomization inspired): 66.7%
- Death number(piece) ([1]; 6 mg/ml atomization inspired, day 1): 0 piece
- Death number(piece) ([1]; 6 mg/ml atomization inspired, day 2): 0 piece
- Death number(piece) ([1]; 6 mg/ml atomization inspired, day 3): 0 piece
- Death number(piece) ([1]; 6 mg/ml atomization inspired, day 4): 0 piece
- Death number(piece) ([1]; 6 mg/ml atomization inspired, day 5): 0 piece
- Death number(piece) ([1]; 6 mg/ml atomization inspired, day 6): 4 piece
- Death number(piece) ([1]; 6 mg/ml atomization inspired, day 7): 4 piece
- Death number(piece) ([1]; 6 mg/ml atomization inspired, day 8): 2 piece
- Death number(piece) ([1]; 6 mg/ml atomization inspired, day 9): 0 piece
- Death number(piece) ([1]; 6 mg/ml atomization inspired, day 10): 0 piece
- Death number(piece) ([1]; 6 mg/ml atomization inspired, day 11): 0 piece
- Death number(piece) ([1]; 6 mg/ml atomization inspired, day 12): 0 piece
- Death number(piece) ([1]; 6 mg/ml atomization inspired, day 13): 0 piece
- Death number(piece) ([1]; 6 mg/ml atomization inspired, day 14): 0 piece
- survival elevation rate (%) ([1]; 6 mg/ml atomization inspired): 50.0%
- The 4th day (bacterial number, head incomplete) ([1]; dose 1.5): 3.4 ± 0.25
- The 5th day (bacterial number, head incomplete) ([1]; dose 1.5, the 5th day): 64.40 ± 15.69
- The 4th day (bacterial number, head incomplete) ([1]; dose 3): 2.5 ± 0.22
- The 5th day (bacterial number, head incomplete) ([1]; dose 3, the 5th day): 60.70 ± 13.98
- The 4th day (bacterial number, head incomplete) ([1]; dose 6): 2.2 ± 0.12
- The 5th day (bacterial number, head incomplete) ([1]; dose 6, the 5th day): 57.60 ± 15.37
- bacterial number ([1]; atomization inspired 1.5, 0 day): 350 ± 21.5 CFU/mL
- bacterial number ([1]; atomization inspired 1.5, the 1th day): 247.10 ± 21.31 CFU/mL
- bacterial number ([1]; atomization inspired 1.5, the 3rd day): 146.90 ± 13.55 CFU/mL
- bacterial number ([1]; atomization inspired 1.5, the 5th day): 64.40 ± 15.69 CFU/mL
- bacterial number ([1]; atomization inspired 1.5, the 14th day): 28.0 ± 2.60 CFU/mL
- bacterial number ([1]; atomization inspired 3.0, 0 day): 350 ± 21.5 CFU/mL
- bacterial number ([1]; atomization inspired 3.0, the 1th day): 246.30 ± 19.03 CFU/mL
- bacterial number ([1]; atomization inspired 3.0, the 3rd day): 141.10 ± 18.54 CFU/mL
- bacterial number ([1]; atomization inspired 3.0, the 5th day): 60.70 ± 13.98 CFU/mL
- bacterial number ([1]; atomization inspired 3.0, the 14th day): 24.0 ± 2.00 CFU/mL
- bacterial number ([1]; atomization inspired 6.0, 0 day): 350 ± 21.5 CFU/mL
- bacterial number ([1]; atomization inspired 6.0, the 3rd day): 134.60 ± 13.58 CFU/mL
- bacterial number ([1]; atomization inspired 6.0, the 5th day): 57.60 ± 15.37 CFU/mL
- bacterial number ([1]; atomization inspired 6.0, the 14th day): 10.0 ± 8.00 CFU/mL
- 95% feasible limits of ED50 ([1]; mice survival over 14 days, Bliss method): 1760 to 4020 mg/L
- ED50 (median effective dose) ([1]; mice survival over 14 days, Bliss method, atomization inspired): 2550 mg/L (≈ 3.41 mM)
- bacterial number [2]: 241.9 ± 16.62 CFU/mL
